US20240148821A1, “PHARMACEUTICAL USE OF CYCLIC PEPTIDE COMPOUND” (CHUGAI SEIYAKU KABUSHIKI KAISHA, priority 2021, published 2024)
Numbered stars: 1 amine (or outer) side, 2 acyl side, 3 side chain; on linkers, the order of the positions; unused ones are H or OH. Bridge positions count the residues as written; N and C are the ends. Square brackets hold non-standard residues; d marks the D form. Peptide text beside a SMILES is read from it. * marks the point of attachment. hPhe(3,5-F2-4-CF3) = N[C@@H](CCc1cc(F)c(C(F)(F)F)c(F)c1)C(=O)O; hPhe(3-Cl-4-CF3) = N[C@@H](CCc1ccc(C(F)(F)F)c(Cl)c1)C(=O)O; NMePhe(4-CF3) = CN[C@@H](Cc1ccc(C(F)(F)F)cc1)C(=O)O; NMeAbu(4,4,4-F3) = CN[C@@H](CC(F)(F)F)C(=O)O; NMePhe(4-Cl) = CN[C@@H](Cc1ccc(Cl)cc1)C(=O)O; X131 = O=C([C@H](Cc1cccc(Br)c1F)N[*:1])[*:2]; NMePhe(4-Me) = CN[C@@H](Cc1ccc(C)cc1)C(=O)O; NMeGly(cPent) = CN[C@H](C(=O)O)C1CCCC1; Phe(3-I) = N[C@@H](Cc1cccc(I)c1)C(=O)O; Phe(4-F) = N[C@@H](Cc1ccc(F)cc1)C(=O)O; Pro(4,4-F2) = O=C(O)[C@@H]1CC(F)(F)CN1; NMeY = CN[C@@H](Cc1ccc(O)cc1)C(=O)O; NMeCha = CN[C@@H](CC1CCCCC1)C(=O)O; NMeChg = CN[C@H](C(=O)O)C1CCCCC1; NMeF = CN[C@@H](Cc1ccccc1)C(=O)O; NMeD = CN[C@@H](CC(=O)O)C(=O)O; NMeL = CN[C@@H](CC(C)C)C(=O)O; NMeNva = CCC[C@H](NC)C(=O)O; NMeV = CN[C@H](C(=O)O)C(C)C; d(β3hA) = C[C@@H](N)CC(=O)O; NMeAbu = CC[C@H](NC)C(=O)O; NMeA = CN[C@@H](C)C(=O)O; NMeAib = CNC(C)(C)C(=O)O; Nle = CCCC[C@H](N)C(=O)O; Piperidide = C1CCN(*)CC1; Pra = C#CC[C@H](N)C(=O)O; Pyrrolidide = C1CCN(*)C1; Ac5c = NC1(C(=O)O)CCCC1; Aze = O=C(O)[C@@H]1CCN1; CF3 = FC(F)(F)*; Sar = CNCC(=O)O

Each compound was assayed on Human pancreatic cancer cell line AsPC-1 (G12D mutation Kras) (assay: AsPC-1 cell growth inhibition (AsPC-1 CGI)). Conditions: read-out: AsPC-1 cell growth inhibition, 50% growth inhibitory concentration (IC50 value); 96 hours, CellTiter-Glo, values classified in ranges.
Assay type: cell-based
Protocol: Test compounds were serially dilated with dimethyl sulfoxide, and 200 nL was then dispensed to a U-bottom 96-well plate using Labcyte Echo. […] The cell suspension was dispensed to a. plate containing a test compound at 100 μL per well and incubated at 37° C. in a 5% carbon dioxide gas incubator. 96 hours later, 80 μL of CellTiter-Glo (Promega) was added to each well and fluorescence was measured.

| SMILES | IC50 [nM] |
| --- | --- |
| CCC[C@H]1C(=O)N[C@@H]([C@@H](C)CC)C(=O)N(C)CC(=O)N(C)CC(=O)N(C)[C@@H](Cc2ccc(C)cc2)C(=O)N(C)CC(=O)N[C@@H](CCc2ccc(C(F)(F)F)c(Cl)c2)C(=O)N2CC(F)(F)C[C@H]2C(=O)NC2(CCCC2)C(=O)N(C)[C@@H](C2CCCCC2)C(=O)N(C)[C@H](C(=O)N2CCCC2)CC(=O)N1C [Compound 1296] ([NMeNva]I[Sar][Sar][NMePhe(4-Me)][Sar][hPhe(3-Cl-4-CF3)][Pro(4,4-F2)][Ac5c][NMeChg][NMeD]-Pyrrolidide; lactam N-11) | ≤ 20 |
| C#CC[C@@H]1NC(=O)[C@H](Cc2cccc(I)c2)NC(=O)CN(C)C(=O)[C@H](Cc2ccc(OC(F)(F)F)cc2)N(C)C(=O)[C@@H]2CCN2C(=O)CN(C)C(=O)[C@H]([C@@H](C)CC)NC(=O)[C@H](CC(C)C)N(C)C(=O)C[C@@H](C(=O)N2CCCCC2)N(C)C(=O)[C@H](CC(C)C)NC(=O)C(C)(C)N(C)C1=O [Compound 1298] ([NMeL]I[Sar][Aze][NMeY](CF3)[Sar][Phe(3-I)][Pra][NMeAib]L[NMeD]-Piperidide; lactam N-11) | > 500 |
| CC[C@H](C)[C@@H]1NC(=O)[C@H](CC(F)(F)F)N(C)C(=O)C[C@@H](C(=O)N2CCCC2)N(C)C(=O)[C@H](C2CCCCC2)N(C)C(=O)C2(CCCC2)NC(=O)[C@@H]2CC(F)(F)CN2C(=O)[C@H](CCc2cc(F)c(C(F)(F)F)c(F)c2)NC(=O)CN(C)C(=O)[C@H](Cc2ccc(C(F)(F)F)cc2)N(C)C(=O)CN(C)C(=O)CN(C)C1=O [Compound 1303] ([NMeAbu(4,4,4-F3)]I[Sar][Sar][NMePhe(4-CF3)][Sar][hPhe(3,5-F2-4-CF3)][Pro(4,4-F2)][Ac5c][NMeChg][NMeD]-Pyrrolidide; lactam N-11) | ≤ 20 |
| CCCC[C@@H]1NC(=O)[C@H](Cc2cccc(Br)c2F)NC(=O)CN(C)C(=O)[C@H](Cc2ccc(OC)cc2)N(C)C(=O)[C@@H]2CCN2C(=O)[C@H](C)N(C)C(=O)[C@H]([C@@H](C)CC)NC(=O)[C@H](CC)N(C)C(=O)C[C@@H](C(=O)N2CCCCC2)N(C)C(=O)[C@H](CC(C)C)NC(=O)C(C)(C)N(C)C1=O [Compound 1304] ([NMeAbu]I[NMeA][Aze][NMeY](Me)[Sar][X131][Nle][NMeAib]L[NMeD]-Piperidide; lactam N-11) | > 500 |
| CCCC[C@@H]1NC(=O)[C@H](Cc2ccc(F)cc2)NC(=O)CN(C)C(=O)[C@H](Cc2ccc(Cl)cc2)N(C)C(=O)CN(C)C(=O)CN(C)C(=O)[C@H]([C@@H](C)CC)NC(=O)[C@H](CC(C)C)N(C)C(=O)C[C@@H](C(=O)N2CCCCC2)N(C)C(=O)[C@H](CC(C)C)NC(=O)C(C)(C)N(C)C1=O [Compound 1305] ([NMeL]I[Sar][Sar][NMePhe(4-Cl)][Sar][Phe(4-F)][Nle][NMeAib]L[NMeD]-Piperidide; lactam N-11) | > 500 |
| CCC[C@H]1C(=O)N[C@@H]([C@@H](C)CC)C(=O)N(C)CC(=O)N(C)CC(=O)N(C)[C@@H](Cc2ccc(C)cc2)C(=O)N(C)CC(=O)N[C@@H](CCc2cc(F)c(C(F)(F)F)c(F)c2)C(=O)N2CC(F)(F)C[C@H]2C(=O)NC2(CCCC2)C(=O)N(C)[C@@H](C2CCCCC2)C(=O)N(C)[C@H](C(=O)N2CCCC2)CC(=O)N1C [Compound 1306] ([NMeNva]I[Sar][Sar][NMePhe(4-Me)][Sar][hPhe(3,5-F2-4-CF3)][Pro(4,4-F2)][Ac5c][NMeChg][NMeD]-Pyrrolidide; lactam N-11) | ≤ 20 |
| CC[C@H](C)[C@@H]1NC(=O)[C@H](CC(C)C)N(C)C(=O)C[C@@H](C)NC(=O)[C@H](C2CCCC2)N(C)C(=O)C2(CCCC2)NC(=O)[C@H](C)NC(=O)[C@H](CCc2ccc(C(F)(F)F)c(Cl)c2)NC(=O)CN(C)C(=O)[C@H](Cc2ccc(C)cc2)N(C)C(=O)[C@@H]2CCN2C(=O)[C@H](C)N(C)C1=O [Compound 1307] (cyclo(A[Ac5c][NMeGly(cPent)][d(β3hA)][NMeL]I[NMeA][Aze][NMePhe(4-Me)][Sar][hPhe(3-Cl-4-CF3)])) | > 500 |
| C#CC[C@@H]1NC(=O)[C@H](Cc2cccc(I)c2)NC(=O)CN(C)C(=O)[C@H](Cc2ccccc2)N(C)C(=O)[C@@H]2CCN2C(=O)[C@H](C)N(C)C(=O)[C@H]([C@@H](C)CC)NC(=O)[C@H](CC(C)C)N(C)C(=O)C[C@@H](C(=O)N2CCCCC2)N(C)C(=O)[C@H](CC(C)C)NC(=O)C(C)(C)N(C)C1=O [Compound 1313] ([NMeL]I[NMeA][Aze][NMeF][Sar][Phe(3-I)][Pra][NMeAib]L[NMeD]-Piperidide; lactam N-11) | > 500 |
| CC[C@H](C)[C@@H]1NC(=O)[C@H](CC(C)C)N(C)C(=O)C[C@@H](C(=O)N2CCCCC2)N(C)C(=O)[C@H](C(C)C)N(C)C(=O)C2(CCCC2)NC(=O)[C@@H](C)NC(=O)[C@H](CCc2ccc(C(F)(F)F)c(Cl)c2)NC(=O)CN(C)C(=O)[C@H](CC2CCCCC2)N(C)C(=O)[C@@H]2CCN2C(=O)[C@H](C)N(C)C1=O [Compound 1314] ([NMeL]I[NMeA][Aze][NMeCha][Sar][hPhe(3-Cl-4-CF3)][dA][Ac5c][NMeV][NMeD]-Piperidide; lactam N-11) | > 500 |
